The record followed here is patent publication US20090023784A1, “USE OF DEFERIPRONE AND METHODS TO TREAT AND/OR PREVENT FRIEDREICH ATAXIA RESULTING FROM INTRACELLULAR MISHANDLING OF IRON” (priority 2006, published 2009).

SMILES strings stand for the structures.

The subject of data set [1] is iron accumulation in dentate nuclei. The data set can be described thus: MRI R2* measurement of brain iron in the pilot trial. In kind it is in vivo, human. The note with it: 20-30 mg/kg/day oral, patients before 17.4±1.6, controls 13.7±0.6. An excerpt:
Multiple-gradient echo sequence was used to monitor the iron concentrations in the brain (Waldvogel et al. Increased iron in the dentate nucleus of patients with Friedrich's ataxia. Ann Neurol 1999; 46:123-5), using a 1.5T Signa unit (GE Medical Systems, Milwaukee, Wisc., USA) using phase array head coil. Deep gray structures were localized by using a T2*-weighted echo-planar sequence (TR 3000 ms, TE 60 ms, eight averages, field of view: 24 cm, 256×224 matrix and slice thickness : 5 mm, 24 slices/1.1 min). A voxel englobing the left and right nuclei was positioned on the largest section of dentate nuclei (dimensions 6×3×2 cm^3). Data acquisition allowing iron monitoring was performed by using a single-slice multi-gradient-echo sequence (TR: 400 ms, flip angle: 50° to maximize gray matter signal, acquisition time: 3 minutes).
The determination of R2* was performed by using data of the multi-gradient echo sequence. In each pixel, the signals Si of the ten images obtained at echo times TEi (−i=1.10) were used to calculate the parameter R2* by adjustment of the signal decay according to the equation Si=So.exp (−R2*.TEi). A parametric image of local R2* values was calculated with the same spatial resolution than the native images. The mean value of R2* was calculated in various regions of interest, all determined by the same experimental radiologist. […]

A short description of data set [2]: Pilot trial: adverse events and biological parameters (hemoglobin, plasma iron, ferritin). Format: in vivo, human. The source says:
Ten adolescents (four males, six females aged 14 to 23 yrs) with a diagnosis of Friedreich ataxia, confirmed by detection of a trinucleotide-repeat expansion in the first intron of the frataxin gene, were studied. Patients received deferiprone (Ferriprox™, Apotex Inc., Toronto, Canada) orally, in two doses for 1-5 months. Three patients were included, sequentially, for a minimum period of two months at each dose. Patient enrollment was staggered by two-weeks to enable monitoring of response. In the absence of toxicity, and with evidence of efficacy in any of the first 3 patients, a second group of 3 patients would be included at the same dose for a total duration of 6 months. If there was an absence of both efficacy and toxicity, the second group of three patients would be administered a higher dose. If toxicity developed, the current dose would be suspended and the trial resumed with the next group of patients at a lower dose. The patients were on idebenone (10 mg/kg/day, in three doses) for at least two years prior to inclusion and were kept on the drug at the same dose for the duration of the trial. MRI examinations were done at inclusion and at 1, 2, 4 and 6 months. The protocol was promoted by Assistance Publique-Hopitaux de Paris and approved by the local ethical committee and registered at the National Health Authority (AFSSAPS) and at the International Protocol Registration System (www.clinicaltrials.gov). A written informed consent was obtained from patients and parents.
The International Cooperative Ataxia Rating Score (ICARS) was used to assess the symptoms of ataxia before and after 1-5 months (Cano et al. International cooperative ataxia rating scale (ICARS): Appropriate for studies of Friedreich's ataxia? Mov Disord 2005; 20:1585-91). […] Patients were monitored for neutropenia, agranulocytosis, musculoskeletal pains and zinc deficiency and had weekly blood counts, plasma iron, serum ferritin and transferrin concentration measurements, as well as assessments of renal and liver function.

Data set [3] in a line: 52-week twice daily oral (gavage) toxicity study of deferiprone in non-iron-loaded monkeys. Format: in vivo, cynomolgus monkeys. How it is done:
As part of a larger study on the potential toxicity of iron chelators, we evaluated the toxicity of deferiprone in normal monkeys receiving 150 mg/kg/day (75 mg/kg twice daily) for 1 year.
To determine the toxicity of deferiprone in non-iron-loaded cynomolgus monkeys following twice daily oral (gavage) administration for 52 consecutive weeks, and to evaluate the regression of any toxic effect during a 4-week treatment-free period.
Groups of 4 male and 4 female monkeys (2 to 3 years old) were dosed by nasogastric intubation at (0.5% w/v aqueous carboxymethylcellulose vehicle) 75 mg/kg deferiprone twice daily (bid), with 6-8 hours between doses, for at least 364 days.
Clinical signs, body weights and food intake were assessed at frequent intervals. Ophthalmological and cardiovascular examinations were carried out in Weeks 17, 30, 43, 56 and 60. Hematology, coagulation, clinical chemistry and urine parameters were measured at baseline and in Weeks 8, 16, 30, 41, 56 and 60. Blood samples were taken on the first day of dosing, and in Weeks 17 and 56 for assessment of the serum deferiprone time-concentration profile. A full necropsy was performed on each animal, selected organs weighed, and histopathological examination of abnormalities and selected tissues conducted.

With `Cc1c(O)c(=O)ccn1C` [Deferiprone, 3-hydroxy-1,2-dimethylpyridin-4-one], the “relaxation rate R2* in dentate nuclei” value was determined as 16.6 ± 1.3 s⁻¹ in data set [1] (after one month) and 15.9 ± 0.6 s⁻¹ in data set [1] (after two months). The signs of toxicity entry in data set [2] (20 mg/kg/day oral) is reported as “without signs of toxicity, other than minor adverse effects, such as nausea”. Also, in data set [2] (80 mg/kg/day oral, first patient (P1), terminated at day 17, slowly reversed on drug termination), the adverse events result was “fatigue, headache, nausea, dizziness, then floppiness, poor head control, abnormal eye movements and fluctuating consciousness”. Moreover, the “impact on the levels of hyposideremic anemia and hypoferritinemia” value in data set [2] (regardless of the dose (20 and 30 mg/kg/day)) is listed as “negligible impact”. Also, the “adverse effect (conclusion)” value in data set [3] (75 mg/kg twice daily orally for 52 weeks) was “without significant adverse effect”. Also, the Clinical signs result in data set [3] (75 mg/kg twice daily, 52 weeks) was “incidental to administration of deferiprone by the IP route”. The “deferiprone-related effects on body weight, food intake, ophthalmology, cardiac conduction, blood pressure, heart rate, hematology or urine composition” value in data set [3] (75 mg/kg twice daily, oral gavage, 52 weeks) was “no deferiprone-related effects”. Further, in data set [3] (75 mg/kg twice daily, oral gavage, 52 weeks, histopathology), the microscopic findings result was “No microscopic findings”. Further, the macroscopic findings result in data set [3] (75 mg/kg twice daily, oral gavage, 52 weeks, necropsy) is on record as “No macroscopic findings related to deferiprone”.
